US8673617B2, “Culture medium for Haemophilus influenzae type B” (Sanofi Pasteur SA, priority 2007, dated 2014)

Tests used:
[1] = test system: Haemophilus influenzae serotype b; assay: PRP production in liquid garden pea peptone-based culture medium as a function of heme source (sandwich ELISA on supernatant); format: cell-based; details: for Mean PRP / PRP in mg/l Assay 1 / PRP in mg/l Assay 2: garden pea medium, 16 h
Experimental: The production of PRP obtained after 16 hours of bacterial culture in liquid plant peptones-based culture media in which the heme source was either hemin or protoporphyrin IX of animal origin (porcine protoporphyrin) in disodium salt form, or protoporphyrin IX of purely synthetic origin in disodium salt form was compared. […] An enzymatic hydrolysate of garden pea peptone provided by Kerry (Hy pea 7404) and a wheat peptone provided by Organotechnie (19559) were tested at a concentration in the culture medium equivalent to 0.87 g/l of protein nitrogen. By reference to the current methods for the production of PRP, PRP production was also measured in a medium that contains a peptone of animal origin, such as casein hydrolysate (HAC) provided by Solabia at a concentration in the medium equivalent to 0.87 g/l with increased concentrations of hemin (see table III).
(§1) 1.1) Preparation of the Media • 1.1.1. Stock solution of β-NAD (Fluka) at 1 g/l in water which was ultrafiltered and then sterilized by filtration through 0.22 μm. • 1.1.2. Stock solution of hemin (Sigma) at 0.25 g/l in water was ultrafiltered, comprising 5 ml of 25% aqueous ammonia (Cooper) to aid dissolution. The stock solution was sterilized by filtration through 0.22 μm. • 1.1.3. Stock solution of porcine protoporphyrin IX (Sigma) at 0.25 g/l in ultrafiltered water comprising 5 ml of 25% aqueous ammonia (Cooper) in order to facilitate the dissolution. The stock solution was sterilized by filtration through 0.22 μm. • 1.1.4. Stock solution of synthetic protoporphyrin IX at 0.25 g/l in ultrafiltered water comprising 5 ml of 25% aqueous ammonia (Cooper) in order to facilitate the dissolution. The stock solution was also heated to 80° C. in a water bath with stirring in order to complete the dissolution before being sterilized by filtration through 0.22 μm. The protoporphyrin IX, in disodium salt form, was synthesized according to the method described in the U.S. provisional patent application Ser. No. 12/057,574, filed Mar. 28, 2008 and application Ser. No. 60/943,735 and filed on Jun. 13, 2007 using the steps which are described in scheme 2. • The stock solutions of hemin and protoporphyrin IX were checked for their respective contents of active compounds after sterilizing filtration. The protoporphyrin IX and hemin contents were determined by Reversed Phase High Performance Liquid Chromatography (RP-HPLC). The chromatographic chain comprises a twin head pump module allowing the formation of a binary gradient, a programmable automatic injector, a diode array UV detector and a chromatographic column of the type Synergi 4 μm, Polar RP-80A (150×4.6) mm, ref 00F-4336-E0, Phenomenex. • The stock solution of hemin (Sigma) to be checked after filtration was diluted ⅓ in distilled water. The stock solutions of porcine protoporphyrin IX (Sigma) and of synthetic protoporphyrin IX to be checked after filtration were diluted ¼ in distilled water. In parallel, a calibration series was prepared in ammoniated water ranging from 0.025 g/l to 0.125 g/l of protoporphyrin IX from porcine protoporphyrin IX from Sigma (ref: 25838-5) and a calibration series ranging from 0.050 g/l to 0.150 g/l of hemin from hemin from Sigma (ref: H5533-256). The samples to be checked and the various solutions of the calibration series were injected in a volume of 20 μl (for the hemin solutions and samples) and of 5 μl (for the protoporphyrin IX solutions and samples). The initial mobile phase consisting of a volume for volume mixture of acetonitrile and 10 mM KH2PO4 pH 2.5 is set at a flow rate of 1 ml/min. A discontinuous gradient was then produced from this mobile phase in order to separate the molecules of interest which are detected at a wavelength of 400 nm. […]

[2] = test system: Haemophilus influenzae serotype b; assay: PRP production in liquid wheat peptone-based culture medium as a function of heme source (sandwich ELISA on supernatant); format: cell-based; details: for Mean PRP / PRP in mg/l Assay 1 / PRP in mg/l Assay 2: wheat medium, 16 h
Experimental: The production of PRP obtained after 16 hours of bacterial culture in liquid plant peptones-based culture media in which the heme source was either hemin or protoporphyrin IX of animal origin (porcine protoporphyrin) in disodium salt form, or protoporphyrin IX of purely synthetic origin in disodium salt form was compared. The hemin and protoporphyrin IX concentration ranges in the culture media varied from about 0.010 g/l to about 2 g/l so as to obtain PRP titration curves as a function of the heme source tested and as a function of the plant peptone tested. An enzymatic hydrolysate of garden pea peptone provided by Kerry (Hy pea 7404) and a wheat peptone provided by Organotechnie (19559) were tested at a concentration in the culture medium equivalent to 0.87 g/l of protein nitrogen. By reference to the current methods for the production of PRP, PRP production was also measured in a medium that contains a peptone of animal origin, such as casein hydrolysate (HAC) provided by Solabia at a concentration in the medium equivalent to 0.87 g/l with increased concentrations of hemin (see table III).
as §1

[3] = porcine protoporphyrin IX 7.48 μg/l
[4] = porcine protoporphyrin IX 37.4 μg/l
[5] = porcine protoporphyrin IX 74.8 μg/l
[6] = porcine protoporphyrin IX 187 μg/l
[7] = porcine protoporphyrin IX 374 μg/l
[8] = porcine protoporphyrin IX 748 μg/l
[9] = porcine protoporphyrin IX 1122 μg/l
[10] = porcine protoporphyrin IX 1496 μg/l
[11] = synthetic protoporphyrin IX 9.96 μg/l
[12] = synthetic protoporphyrin IX 49.8 μg/l
[13] = synthetic protoporphyrin IX 99.6 μg/l
[14] = synthetic protoporphyrin IX 249 μg/l
[15] = synthetic protoporphyrin IX 498 μg/l
[16] = synthetic protoporphyrin IX 996 μg/l
[17] = synthetic protoporphyrin IX 1494 μg/l
[18] = synthetic protoporphyrin IX 1992 μg/l

For protoporphyrin IX, the “protoporphyrin IX concentration to obtain about 400 mg/l of PRP” value ([1]; garden pea peptone and protoporphyrin IX-based medium) was “about 100 μg/l”, the “times less protoporphyrin IX than hemin required for maximum PRP production” value ([1]; garden pea peptone medium) was “About 12.5 times” and the “heme source concentration required for optimum / maximum PRP production” value ([1]; garden pea peptone medium (FIG. 1)) was “about 200 μg/l”. For the same substance, the “optimum PRP production” value ([1]; garden pea peptone medium, about 200 μg/l) was “≈ 480 mg/l”, the “PRP concentration in the culture supernatant at maximum production” value ([1]; plant peptone medium, 100 to 200 μg/l) was 0.4 g/L and the “production of PRP (in words)” value ([1]; plant peptone medium, heme source at 10 μg/l) was “significant production of PRP”. The “production of PRP” value ([1]; plant peptone medium, heme source at 50 μg/l (FIGS. 1 and 2)) was ≥ 100 µg/L, the “protoporphyrin IX concentration to obtain about 400 mg/l of PRP” value ([2]; wheat peptone and protoporphyrin IX-based medium) was “about 100 μg/l” and the “times less protoporphyrin IX than hemin required for maximum PRP production” value ([2]; wheat peptone medium) was “About 15 times”. For the same substance, the “heme source concentration required for optimum / equivalent PRP production” value ([2]; wheat peptone medium (FIG. 2)) was “about 100 μg/l” and the “optimum PRP production” value ([2]; wheat peptone medium, about 100 μg/l) was “≈ 400 mg/l”.

For “protoporphyrin IX [Porcine protoporphyrin IX]”, the “Mean PRP” value [1, 3] was 15.6 mg/L, the “PRP in mg/l Assay 1” value [1, 3] was 15.1 mg/L and the “PRP in mg/l Assay 2” value [1, 3] was 16.1 mg/L. The “Mean PRP” value [1, 4] was 146 mg/L, the “PRP in mg/l Assay 1” value [1, 4] was 143 mg/L and the “PRP in mg/l Assay 2” value [1, 4] was 149 mg/L. For the same substance, the “Mean PRP” value [1, 5] was 349 mg/L, the “PRP in mg/l Assay 1” value [1, 5] was 344 mg/L and the “PRP in mg/l Assay 2” value [1, 5] was 354 mg/L. For the same substance, the “Mean PRP” value [1, 6] was 470 mg/L, the “PRP in mg/l Assay 1” value [1, 6] was 450 mg/L and the “PRP in mg/l Assay 2” value [1, 6] was 490 mg/L. For the same substance, the “Mean PRP” value [1, 7] was 423.5 mg/L, the “PRP in mg/l Assay 1” value [1, 7] was 415 mg/L and the “PRP in mg/l Assay 2” value [1, 7] was 432 mg/L. The “Mean PRP” value [1, 8] was 509 mg/L, the “PRP in mg/l Assay 1” value [1, 8] was 495 mg/L and the “PRP in mg/l Assay 2” value [1, 8] was 523 mg/L. The “Mean PRP” value [1, 9] was 521 mg/L, the “PRP in mg/l Assay 1” value [1, 9] was 492 mg/L and the “PRP in mg/l Assay 2” value [1, 9] was 550 mg/L. The “Mean PRP” value [1, 10] was 479 mg/L, the “PRP in mg/l Assay 1” value [1, 10] was 466 mg/L and the “PRP in mg/l Assay 2” value [1, 10] was 493 mg/L. The “Mean PRP” value [2, 3] was 26.9 mg/L, the “PRP in mg/l Assay 1” value [2, 3] was 25.5 mg/L and the “PRP in mg/l Assay 2” value [2, 3] was 28.3 mg/L. For the same substance, the “Mean PRP” value [2, 4] was 142.5 mg/L, the “PRP in mg/l Assay 1” value [2, 4] was 136 mg/L and the “PRP in mg/l Assay 2” value [2, 4] was 149 mg/L. For the same substance, the “Mean PRP” value [2, 5] was 364 mg/L, the “PRP in mg/l Assay 1” value [2, 5] was 429 mg/L and the “PRP in mg/l Assay 2” value [2, 5] was 299 mg/L. For the same substance, the “Mean PRP” value [2, 6] was 430 mg/L, the “PRP in mg/l Assay 1” value [2, 6] was 452 mg/L and the “PRP in mg/l Assay 2” value [2, 6] was 408 mg/L. The “Mean PRP” value [2, 7] was 385.5 mg/L, the “PRP in mg/l Assay 1” value [2, 7] was 397 mg/L and the “PRP in mg/l Assay 2” value [2, 7] was 374 mg/L. The “Mean PRP” value [2, 8] was 388 mg/L, the “PRP in mg/l Assay 1” value [2, 8] was 399 mg/L and the “PRP in mg/l Assay 2” value [2, 8] was 377 mg/L. The “Mean PRP” value [2, 9] was 387.5 mg/L, the “PRP in mg/l Assay 1” value [2, 9] was 446 mg/L and the “PRP in mg/l Assay 2” value [2, 9] was 329 mg/L. For the same substance, the “Mean PRP” value [2, 10] was 373.5 mg/L, the “PRP in mg/l Assay 1” value [2, 10] was 464 mg/L and the “PRP in mg/l Assay 2” value [2, 10] was 283 mg/L.

In the case of “protoporphyrin IX [Synthetic protoporphyrin IX]”, the “Mean PRP” value [1, 11] is reported as 11.55 mg/L, the “PRP in mg/l Assay 1” value [1, 11] is reported as 11.3 mg/L and the “PRP in mg/l Assay 2” value [1, 11] is reported as 11.8 mg/L. For the same substance, the “Mean PRP” value [1, 12] was 136.5 mg/L, the “PRP in mg/l Assay 1” value [1, 12] was 139 mg/L and the “PRP in mg/l Assay 2” value [1, 12] was 134 mg/L. For the same substance, the “Mean PRP” value [1, 13] was 356.5 mg/L, the “PRP in mg/l Assay 1” value [1, 13] was 330 mg/L and the “PRP in mg/l Assay 2” value [1, 13] was 383 mg/L. The “Mean PRP” value [1, 14] was 488 mg/L, the “PRP in mg/l Assay 1” value [1, 14] was 474 mg/L and the “PRP in mg/l Assay 2” value [1, 14] was 502 mg/L. The “Mean PRP” value [1, 15] was 387.5 mg/L, the “PRP in mg/l Assay 1” value [1, 15] was 383 mg/L and the “PRP in mg/l Assay 2” value [1, 15] was 392 mg/L. For the same substance, the “Mean PRP” value [1, 16] was 499 mg/L, the “PRP in mg/l Assay 1” value [1, 16] was 524 mg/L and the “PRP in mg/l Assay 2” value [1, 16] was 474 mg/L. The “Mean PRP” value [1, 17] was 513 mg/L, the “PRP in mg/l Assay 1” value [1, 17] was 503 mg/L and the “PRP in mg/l Assay 2” value [1, 17] was 523 mg/L. For the same substance, the “Mean PRP” value [1, 18] was 488.5 mg/L, the “PRP in mg/l Assay 1” value [1, 18] was 480 mg/L and the “PRP in mg/l Assay 2” value [1, 18] was 497 mg/L. For the same substance, the “Mean PRP” value [2, 11] was 30.7 mg/L, the “PRP in mg/l Assay 1” value [2, 11] was 33.5 mg/L and the “PRP in mg/l Assay 2” value [2, 11] was 27.9 mg/L. The “Mean PRP” value [2, 12] was 318 mg/L, the “PRP in mg/l Assay 1” value [2, 12] was 317 mg/L and the “PRP in mg/l Assay 2” value [2, 12] was 319 mg/L. The “Mean PRP” value [2, 13] was 413 mg/L, the “PRP in mg/l Assay 1” value [2, 13] was 389 mg/L and the “PRP in mg/l Assay 2” value [2, 13] was 437 mg/L. For the same substance, the “Mean PRP” value [2, 14] was 347.5 mg/L, the “PRP in mg/l Assay 1” value [2, 14] was 345 mg/L and the “PRP in mg/l Assay 2” value [2, 14] was 350 mg/L. The “Mean PRP” value [2, 15] was 394.5 mg/L, the “PRP in mg/l Assay 1” value [2, 15] was 380 mg/L and the “PRP in mg/l Assay 2” value [2, 15] was 409 mg/L. For the same substance, the “Mean PRP” value [2, 16] was 402.5 mg/L, the “PRP in mg/l Assay 1” value [2, 16] was 401 mg/L and the “PRP in mg/l Assay 2” value [2, 16] was 404 mg/L. For the same substance, the “Mean PRP” value [2, 17] was 354 mg/L, the “PRP in mg/l Assay 1” value [2, 17] was 358 mg/L and the “PRP in mg/l Assay 2” value [2, 17] was 350 mg/L. The “Mean PRP” value [2, 18] was 404 mg/L, the “PRP in mg/l Assay 1” value [2, 18] was 378 mg/L and the “PRP in mg/l Assay 2” value [2, 18] was 430 mg/L.
